Data: patent US7723326B2, “Heterocyclic amide derivatives as RXR agonists for the treatment of dyslipidemia, hypercholesterolemia and diabetes” (Janssen Pharmaceutica N.V., priority 2005, dated 2010)
“And” between values parts separate entries of the source, which are not always exact repeats. Equal values may be shown once.

Assays:
[1] = tested on: ABCA1 mRNA in THP-1 cells; experiment: ABCA1 bDNA assay (ABCA1 mRNA induction); type: cell-based; conditions: Homo sapiens; for EC50: ABCA1 mRNA induction, usually 18-24 hrs; for Emax at 3 µM: relative to MX-6054, read-out: ABCA1 % max MX-6054
Experimental: THP-1 cells, a human monocytic cell line, were obtained from ATCC and maintained in RPMI (Gibco) supplemented with 10% fetal bovine serum (Gibco), 2mM L-glutamine and 1% antibiotic-antimycotic in 5% CO2 at 37° C. For ABCA1 mRNA induction assays, the cells were pelleted and resuspended in RPMI supplemented with 0.5% charcoal treated serum (Hyclone), 2 mM glutamine and 1% antibiotic-antimycotic. The cells were plated at a density of 40,000 cells/90 μl and incubated as above for at least 4 hours before the initiation of treatments. Compounds were prepared as 10 mM stocks in DMSO. For treatments, the compounds were diluted in medium and 10 μl of 10× stocks were added to the cells at a final concentration 0.1% DMSO. The cells were incubated for the desired amount of time (usually 18-24 hrs) and then lyzed with 50 μl of Quantigene HV bDNA lysis buffer which also contained the ABCA1 bDNA probes (probe sequences shown below): […]

[2] = target: T1, RXR ligand binding domain (accession number X52773) fused with the DNA binding domain of yeast GAL4 (Homo sapiens, UniProt P19793); experiment: RXR co-transfection assay (GAL4-LBD luciferase reporter in HEK293 cells); type: cell-based; conditions: 16-18 hours
T1 construct: expressed in transfected cells; host or cells: HEK293
T1 sequence (P19793 227-458 limits assumed): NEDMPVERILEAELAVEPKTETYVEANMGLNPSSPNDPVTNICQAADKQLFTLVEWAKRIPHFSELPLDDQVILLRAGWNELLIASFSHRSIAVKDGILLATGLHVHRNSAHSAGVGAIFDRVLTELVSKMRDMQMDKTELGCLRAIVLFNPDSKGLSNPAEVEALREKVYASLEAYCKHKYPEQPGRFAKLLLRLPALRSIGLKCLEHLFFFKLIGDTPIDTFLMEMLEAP
Experimental: The nucleic acid sequence from 676-1464bp (accession number X52773) encoding the ligand binding domains was subcloned into the pM vector (BD Biosciences Clontech, Palo Alto, Calif.) and were fused with the DNA binding domain of yeast GAL4. HEK293 cells were cultured in DMEM/F12 medium supplemented with 10% FBS and 1% 1-glutamine (growth medium). Cells were seeded at a density of 5-10×10^6 cells in 50 ml of growth medium and left overnight, The medium was removed and the cells were washed with 15 ml of OptiMEM serum free medium (Invitrogen Corp). The cells were transfected using OptiMEM serum free medium and DMRIE transfection reagent (Invitrogen Corp). Approximately 10-30 ng of DNA for the different receptors and 5-10 ng of the luciferase reporter (1:1 ratio for RAR and 4:1 ratio for RXR of receptor DNA:reporter DNA) were gently mixed with 51 μl of DMRIE reagent in a total volume of 17 ml of OptiMEM medium. Eighteen hours after transfection, the cells were washed once with growth medium and then incubated for 6 hrs in 30 ml of growth medium. The cells were then trypsinized, and reseeded at a density of 50,000 per well in 96 well plates and left overnight. The medium was replaced with 90 μl of medium containing DMEM/F12 supplemented with 0.5% charcoal-treated FBS (HyClone; Logan, Utah) and 1% glutamine. Compounds or vehicle were added in 10 μl of 10× concentration of compound or vehicle (0.1% dimethyl sulfoxide). The cells were treated for 16-18 hours, lysed and assayed for luciferase activity using the Steady Gio luciferase assay kit (Promega, Madison, Wis.).

| Structure (SMILES) | EC50 [1] | EC50 [2] | Emax at 3 µM [1] |
| --- | --- | --- | --- |
| CCN1C(=O)C(C)(C)Oc2cc(C)c(-c3cc(/C=C/C(=O)O)ccc3OC(F)(F)F)cc21 [Compound 1, 3-[3-(4-Ethyl-2,2,7-trimethyl-3-oxo-3,4-dihydro-2H-benzo[1,4]oxazin-6-yl)-4-trifluoromethoxy-phenyl]-acrylic acid] | 39.7 nM | 151 nM and 180 nM and 189 nM | – |
| CCN1C(=O)C(C)(C)Oc2cc(C)c(-c3cc(/C=C/C(=O)O)ccc3OCC(F)(F)F)cc21 [Compound 2, 3-[3-(4-Ethyl-2,2,7-trimethyl-3-oxo-3,4-dihydro-2H-benzo[1,4]oxazin-6-yl)-4-(2,2,2-trifluoro-ethoxy)-phenyl]-acrylic acid] | > 2000 nM | > 2000 nM | – |
| Cc1cc2c(cc1-c1cc(/C=C/C(=O)O)ccc1OC(F)(F)F)N(C)C(=O)C(C)(C)O2 [Compound 3, 3-[3-(2,2,4,7-Tetramethyl-3-oxo-3,4-dihydro-2H-benzo[1,4]oxazin-6-yl)-4-trifluoromethoxy-phenyl]-acrylic acid] | > 2000 nM | > 2000 nM | 8.4% |
| Cc1cc2c(cc1-c1cc(/C=C/C(=O)O)ccc1OC(F)(F)F)N(C(C)C)C(=O)C(C)(C)O2 [Compound 4, 3-[3-(4-Isopropyl-2,2,7-trimethyl-3-oxo-3,4-dihydro-2H-benzo[1,4]oxazin-6-yl)-4-trifluoromethoxy-phenyl]-acrylic acid] | 430 nM | 98.8 nM | 79% |
| Cc1cc2c(cc1-c1cc(/C=C/C(=O)O)ccc1OCC(F)(F)F)N(C)C(=O)C(C)(C)O2 [Compound 5, 3-[3-(2,2,4,7-Tetramethyl-3-oxo-3,4-dihydro-2H-benzo[1,4]oxazin-6-yl)-4-(2,2,2-trifluoro-ethoxy)-phenyl]-acrylic acid] | > 2000 nM | > 2000 nM | – |
| CCN1C(=O)COc2cc(C)c(-c3cc(/C=C/C(=O)O)ccc3OC(F)(F)F)cc21 [Compound 6, 3-[3-(4-Ethyl-7-methyl-3-oxo-3,4-dihydro-2H-benzo[1,4]oxazin-6-yl)-4-trifluoromethoxy-phenyl]-acrylic acid] | > 2000 nM | – | – |
| CCN1C(=O)C(C)Oc2cc(C)c(-c3cc(/C=C/C(=O)O)ccc3OC(F)(F)F)cc21 (stereo not shown) [Compound 7, 3-[3-(4-Ethyl-2,7-dimethyl-3-oxo-3,4-dihydro-2H-benzo[1,4]oxazin-6-yl)-4-trifluoromethoxy-phenyl]-acrylic acid] | > 2000 nM | – | – |
| CCC1Oc2cc(C)c(-c3cc(/C=C/C(=O)O)ccc3OC(F)(F)F)cc2N(CC)C1=O (stereo not shown) [Compound 8, 3-[3-(2,4-Diethyl-7-methyl-3-oxo-3,4-dihydro-2H-benzo[1,4]oxazin-6-yl)-4-trifluoromethoxy-phenyl]-acrylic acid] | > 2000 nM | – | – |
| CCN1C(=O)C(C(C)C)Oc2cc(C)c(-c3cc(/C=C/C(=O)O)ccc3OC(F)(F)F)cc21 (stereo not shown) [Compound 9, 3-[3-(4-Ethyl-2-isopropyl-7-methyl-3-oxo-3,4-dihydro-2H-benzo[1,4]oxazin-6-yl)-4-trifluoromethoxy-phenyl]-acrylic acid] | > 2000 nM | – | – |

The next lines start with results.

| EC50 [1] | EC50 [2] | Structure (SMILES) | Emax at 3 µM [1] |
| --- | --- | --- | --- |
| > 2000 nM | – | CCN1C(=O)OCc2cc(C)c(-c3cc([C@@H]4C[C@H]4C(=O)O)ccc3OC(F)(F)F)cc21 (racemic) [Compound 21, 2-[3-(1-Ethyl-6-methyl-2-oxo-1,4-dihydro-2H-benzo[d][1,3]oxazin-7-yl)-4-trifluoromethoxy-phenyl]-cyclopropanecarboxylic acid] | – |
| > 2000 nM | 385 nM | CCN1C(=O)C(C)(C)Oc2cc(C)c(-c3cc([C@@H]4C[C@H]4C(=O)O)ccc3OC(F)(F)F)cc21 (racemic) [Compound 22, 2-[3-(4-Ethyl-2,2,7-trimethyl-3-oxo-3,4-dihydro-2H-benzo[1,4]oxazin-6-yl)-4-trifluoromethoxy-phenyl]-cyclopropanecarboxylic acid] | 28.6% |
| > 2000 nM | 719 nM | Cc1cc2c(cc1-c1cc(C3CC3C(=O)O)ccc1OC(F)(F)F)N(C(C)C)C(=O)C(C)(C)O2 (racemic) [Compound 23, 2-[3-(4-Isopropyl-2,2,7-trimethyl-3-oxo-3,4-dihydro-2H-benzo[1,4]oxazin-6-yl)-4-trifluoromethoxy-phenyl]-cyclopropanecarboxylic acid] | 64.1% |
| > 2000 nM | > 2000 nM | CCn1c(=O)c(=O)n(CC)c2cc(-c3cc([C@@H]4C[C@H]4C(=O)O)ccc3OC(F)(F)F)c(C)cc21 (racemic) [Compound 26, 2-[3-(1,4-Diethyl-7-methyl-2,3-dioxo-1,2,3,4-tetrahydro-quinoxalin-6-yl)-4-trifluoromethoxy-phenyl]-cyclopropanecarboxylic acid] | – |
| > 2000 nM | 1400 nM | CCN1C(=O)C(C)(C)Oc2cc(C)c(-c3cc(/C=C(\C)C(=O)O)ccc3OC(F)(F)F)cc21 [Compound 10, 3-[3-(4-Ethyl-2,2,7-trimethyl-3-oxo-3,4-dihydro-2H-benzo[1,4]oxazin-6-yl)-4-trifluoromethoxy-phenyl]-2-methyl-acrylic acid] | 37.2% |
| > 2000 nM | – | CCN1C(=O)OC(C)(C)c2cc(C)c(-c3cc(/C=C/C(=O)O)ccc3OC(F)(F)F)cc21 [Compound 14, 3-[3-(1-Ethyl-4,4,6-trimethyl-2-oxo-1,4-dihydro-2H-benzo[d][1,3]oxazin-7-yl)-4-trifluoromethoxy-phenyl]-acrylic acid] | – |
| > 2000 nM | – | CCN1C(=O)OCc2cc(C)c(-c3cc(/C=C/C(=O)O)ccc3OC(F)(F)F)cc21 [Compound 15, 3-[3-(1-Ethyl-6-methyl-2-oxo-1,4-dihydro-2H-benzo[d][1,3]oxazin-7-yl)-4-trifluoromethoxy-phenyl]-acrylic acid] | – |
| > 2000 nM | – | CCN1C(=O)OC(C(C)C)c2cc(C)c(-c3cc(/C=C/C(=O)O)ccc3OC(F)(F)F)cc21 (stereo not shown) [Compound 16, 3-[3-(1-Ethyl-4-isopropyl-6-methyl-2-oxo-1,4-dihydro-2H-benzo[d][1,3]oxazin-7-yl)-4-trifluoromethoxy-phenyl]-acrylic acid] | – |
| > 2000 nM | – | CCN1C(=O)OC(C)(C)c2cc(C)c(-c3cc(CCC(=O)O)ccc3OC(F)(F)F)cc21 [Compound 17, 3-[3-(1-Ethyl-4,4,6-trimethyl-2-oxo-1,4-dihydro-2H-benzo[d][1,3]oxazin-7-yl)-4-trifluoromethoxy-phenyl]-propionic acid] | – |
| > 2000 nM | – | CCN1C(=O)OC(C)(C)c2cc(C)c(-c3cc([C@@H]4C[C@H]4C(=O)O)ccc3OC(F)(F)F)cc21 [Compound 19, 2-[3-(1-Ethyl-4,4,6-trimethyl-2-oxo-1,4-dihydro-2H-benzo[d][1,3]oxazin-7-yl)-4-trifluoromethoxy-phenyl]-cyclopropanecarboxylic acid] | – |
| > 2000 nM | – | CCN1C(=O)OC(C(C)C)c2cc(C)c(-c3cc([C@@H]4C[C@H]4C(=O)O)ccc3OC(F)(F)F)cc21 (stereo partly shown) [Compound 20, 2-[3-(1-Ethyl-4-isopropyl-6-methyl-2-oxo-1,4-dihydro-2H-benzo[d][1,3]oxazin-7-yl)-4-trifluoromethoxy-phenyl]-cyclopropanecarboxylic acid] | – |
| > 2000 nM | – | CCn1c(=O)c(=O)n(CC)c2cc(-c3cc(/C=C/C(=O)O)ccc3OC(F)(F)F)c(C)cc21 [Compound 24, 3-[3-(1,4-Diethyl-7-methyl-2,3-dioxo-1,2,3,4-tetrahydro-quinoxalin-6-yl)-4-trifluoromethoxy-phenyl]-acrylic acid] | – |
| > 2000 nM | – | CCN1C(=O)CN(C(C)C)c2cc(C)c(-c3cc(/C=C/C(=O)O)ccc3OC(F)(F)F)cc21 [Compound 25, 3-[3-(4-Ethyl-1-isopropyl-7-methyl-3-oxo-1,2,3,4-tetrahydro-quinoxalin-6-yl)-4-trifluoromethoxy-phenyl]-acrylic acid] | – |
| > 2000 nM | – | CCN1CC(C)(C)Oc2cc(C)c(-c3cc(/C=C/C(=O)O)ccc3OC(F)(F)F)cc21 [Compound 27, 3-[3-(4-Ethyl-2,2,7-trimethyl-3,4-dihydro-2H-benzo[1,4]oxazin-6-yl)-4-trifluoromethoxy-phenyl]-acrylic acid] | – |
